The results in this text go back to the NIST ThermoML archive (doi:10.1016/j.jct.2011.11.021).

Numbers after ± are expanded uncertainties.

The nature of the first series: activity coefficient (dimensionless); of the first substance listed, at infinite dilution; xn = mol fraction of the nth substance listed. As to conditions: 348.15 K; Liquid; Chromatography; x1 = 0.
Turning to `CCC(=O)OC` [methyl propanoate] + COCC[N+]1(C)CCOCC1.O=S(=O)([N-]S(=O)(=O)C(F)(F)F)C(F)(F)F, the activity coefficient worked out at 0.998 ± 0.062.

As for `C=C(C)c1ccccc1` [(1-methylethenyl)benzene] + COCC[N+]1(C)CCOCC1.O=S(=O)([N-]S(=O)(=O)C(F)(F)F)C(F)(F)F, the activity coefficient was determined as 2.78 ± 0.19.

Take `CCC(C)(C)OC` [2-methoxy-2-methylbutane] + COCC[N+]1(C)CCOCC1.O=S(=O)([N-]S(=O)(=O)C(F)(F)F)C(F)(F)F: the activity coefficient is 5.37 ± 0.37.

For `Cc1ccccc1C` [1,2-dimethylbenzene] + COCC[N+]1(C)CCOCC1.O=S(=O)([N-]S(=O)(=O)C(F)(F)F)C(F)(F)F, the activity coefficient was 2.65 ± 0.18.

Regarding `CCC(C)O` (configuration not stated) [butan-2-ol] + COCC[N+]1(C)CCOCC1.O=S(=O)([N-]S(=O)(=O)C(F)(F)F)C(F)(F)F, the activity coefficient came out at 2.06 ± 0.14.

With `CC(=O)O` [acetic acid] + COCC[N+]1(C)CCOCC1.O=S(=O)([N-]S(=O)(=O)C(F)(F)F)C(F)(F)F, the activity coefficient stood at 0.459 ± 0.036.

With `c1ccncc1` [pyridine] + COCC[N+]1(C)CCOCC1.O=S(=O)([N-]S(=O)(=O)C(F)(F)F)C(F)(F)F, the activity coefficient was 0.651 ± 0.045.

For `CCCCO` [butan-1-ol] + COCC[N+]1(C)CCOCC1.O=S(=O)([N-]S(=O)(=O)C(F)(F)F)C(F)(F)F, the activity coefficient stood at 2.4 ± 0.16.

For `CCC(C)CC` [3-methylpentane] + COCC[N+]1(C)CCOCC1.O=S(=O)([N-]S(=O)(=O)C(F)(F)F)C(F)(F)F, the activity coefficient was 23.9 ± 1.6.

As to `C1CCCCCC1` [cycloheptane] + COCC[N+]1(C)CCOCC1.O=S(=O)([N-]S(=O)(=O)C(F)(F)F)C(F)(F)F, the activity coefficient worked out at 19.7 ± 1.3.

On to `O` [water] + COCC[N+]1(C)CCOCC1.O=S(=O)([N-]S(=O)(=O)C(F)(F)F)C(F)(F)F, for which the activity coefficient turned out to be 1.73 ± 0.12.

Regarding `CCCCC` [pentane] + COCC[N+]1(C)CCOCC1.O=S(=O)([N-]S(=O)(=O)C(F)(F)F)C(F)(F)F, the activity coefficient was 19 ± 1.3.

`CCCCCCCC` [octane] + COCC[N+]1(C)CCOCC1.O=S(=O)([N-]S(=O)(=O)C(F)(F)F)C(F)(F)F: the activity coefficient came to 58.4 ± 4.

For `C#CCCCCC` [1-heptyne] + COCC[N+]1(C)CCOCC1.O=S(=O)([N-]S(=O)(=O)C(F)(F)F)C(F)(F)F, the activity coefficient turned out to be 6.94 ± 0.47.

Regarding `CCCC(C)=O` [pentan-2-one] + COCC[N+]1(C)CCOCC1.O=S(=O)([N-]S(=O)(=O)C(F)(F)F)C(F)(F)F, the activity coefficient is 0.91 ± 0.058.

Turning to `CCO` [ethanol] + COCC[N+]1(C)CCOCC1.O=S(=O)([N-]S(=O)(=O)C(F)(F)F)C(F)(F)F, the activity coefficient worked out at 1.36 ± 0.09.

Turning to `CCOCC` [diethyl ether] + COCC[N+]1(C)CCOCC1.O=S(=O)([N-]S(=O)(=O)C(F)(F)F)C(F)(F)F, the activity coefficient was 3.41 ± 0.23.

With `C=Cc1ccccc1` [styrene] + COCC[N+]1(C)CCOCC1.O=S(=O)([N-]S(=O)(=O)C(F)(F)F)C(F)(F)F, the activity coefficient is 1.76 ± 0.12.

For `CC(C)=O` [acetone] + COCC[N+]1(C)CCOCC1.O=S(=O)([N-]S(=O)(=O)C(F)(F)F)C(F)(F)F, the activity coefficient was 0.461 ± 0.036.

Turning to `CCCOCCC` [dipropyl ether] + COCC[N+]1(C)CCOCC1.O=S(=O)([N-]S(=O)(=O)C(F)(F)F)C(F)(F)F, the activity coefficient was determined as 9.56 ± 0.65.

Take `CCc1ccccc1` [ethylbenzene] + COCC[N+]1(C)CCOCC1.O=S(=O)([N-]S(=O)(=O)C(F)(F)F)C(F)(F)F: the activity coefficient was 3.1 ± 0.21.

Regarding `COC(C)(C)C` [2-methoxy-2-methylpropane] + COCC[N+]1(C)CCOCC1.O=S(=O)([N-]S(=O)(=O)C(F)(F)F)C(F)(F)F, the activity coefficient turned out to be 3.58 ± 0.24.

For the molecule `CC(C)CO` [2-methyl-1-propanol] + COCC[N+]1(C)CCOCC1.O=S(=O)([N-]S(=O)(=O)C(F)(F)F)C(F)(F)F, the activity coefficient is 2.25 ± 0.15.

On to `CC(C)CC(C)(C)C` [2,2,4-trimethylpentane] + COCC[N+]1(C)CCOCC1.O=S(=O)([N-]S(=O)(=O)C(F)(F)F)C(F)(F)F, for which the activity coefficient was 40.8 ± 2.8.

Staying with this series, now noted: 358.15 K; Liquid; Chromatography; x1 = 0.
`C#CCCCC` [1-hexyne] + COCC[N+]1(C)CCOCC1.O=S(=O)([N-]S(=O)(=O)C(F)(F)F)C(F)(F)F: the activity coefficient was found to be 4.65 ± 0.32.

For `CCC(=O)OC` [methyl propanoate] + COCC[N+]1(C)CCOCC1.O=S(=O)([N-]S(=O)(=O)C(F)(F)F)C(F)(F)F, the activity coefficient stood at 1.01 ± 0.06.

Turning to `C=C(C)c1ccccc1` [(1-methylethenyl)benzene] + COCC[N+]1(C)CCOCC1.O=S(=O)([N-]S(=O)(=O)C(F)(F)F)C(F)(F)F, the activity coefficient was found to be 2.79 ± 0.19.

As for `CCC(C)(C)OC` [2-methoxy-2-methylbutane] + COCC[N+]1(C)CCOCC1.O=S(=O)([N-]S(=O)(=O)C(F)(F)F)C(F)(F)F, the activity coefficient is 5.32 ± 0.36.

Take `Cc1ccccc1C` [1,2-dimethylbenzene] + COCC[N+]1(C)CCOCC1.O=S(=O)([N-]S(=O)(=O)C(F)(F)F)C(F)(F)F: the activity coefficient was 2.61 ± 0.18.

For the molecule `CCC(C)O` (configuration not stated) [butan-2-ol] + COCC[N+]1(C)CCOCC1.O=S(=O)([N-]S(=O)(=O)C(F)(F)F)C(F)(F)F, the activity coefficient was found to be 1.9 ± 0.13.

Consider `CC(=O)O` [acetic acid] + COCC[N+]1(C)CCOCC1.O=S(=O)([N-]S(=O)(=O)C(F)(F)F)C(F)(F)F, for which the activity coefficient was 0.465 ± 0.036.

As for `c1ccncc1` [pyridine] + COCC[N+]1(C)CCOCC1.O=S(=O)([N-]S(=O)(=O)C(F)(F)F)C(F)(F)F, the activity coefficient is 0.654 ± 0.045.

For `CCCCO` [butan-1-ol] + COCC[N+]1(C)CCOCC1.O=S(=O)([N-]S(=O)(=O)C(F)(F)F)C(F)(F)F, the activity coefficient stood at 2.18 ± 0.15.

Turning to `CCC(C)CC` [3-methylpentane] + COCC[N+]1(C)CCOCC1.O=S(=O)([N-]S(=O)(=O)C(F)(F)F)C(F)(F)F, the activity coefficient was 21.9 ± 1.5.

For the molecule `C1CCCCCC1` [cycloheptane] + COCC[N+]1(C)CCOCC1.O=S(=O)([N-]S(=O)(=O)C(F)(F)F)C(F)(F)F, the activity coefficient stood at 18.1 ± 1.2.

Turning to `O` [water] + COCC[N+]1(C)CCOCC1.O=S(=O)([N-]S(=O)(=O)C(F)(F)F)C(F)(F)F, the activity coefficient stood at 1.55 ± 0.1.

With `CCCCC` [pentane] + COCC[N+]1(C)CCOCC1.O=S(=O)([N-]S(=O)(=O)C(F)(F)F)C(F)(F)F, the activity coefficient came to 17.4 ± 1.2.
